# Measured values: patent US20120142771A1, “BIPHENYLACETAMIDE DERIVATIVE” (Dainippon Sumitomo Pharma Co., Ltd., priority 2008, published 2012)
# Legend:
# [1] = tested on: maximum electroshock seizure (MES) model; experiment: Maximum electroshock seizure (MES) model test; assay type: in vivo, mice
# Summary of the method: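 Tonic hind-limb extension was elicited by corneal electroshock (60 Hz, 25 mA, 0.2 s) 1 h after oral dosing. Test compounds were given at 50 or 100 mg/kg to groups of 3 male Slc: ddY mice (20-30 g), vehicle controls receiving 0.5% tragacanth or 0.5% methylcellulose solution.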
# [2] = tested on: subcutaneously pentetrazol-injected model (scPTZ); experiment: Subcutaneously pentetrazol-injected model (scPTZ) test; assay type: in vivo, mice; conditions: pentetrazol 85 mg/kg s.c. after 1 hour
# Summary of the method: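 Pentetrazol (85 mg/kg, s.c.) was injected one hour after oral test compound at 50 or 100 mg/kg in groups of three male Slc:ddY mice weighing 20-30 g; vehicle controls got 0.5% tragacanth or 0.5% methylcellulose.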
# [3] = tested on: 6 Hz psychomotor seizure model; experiment: 6 Hz psychomotor seizure model; assay type: in vivo, mice; conditions: mice, oral
# Summary of the method: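 Anticonvulsant activity was tested in the 6 Hz psychomotor seizure model in mice, a model reflecting seizures resistant to current antiepileptic drugs. 30 minutes or an hour after dosing, corneal electrical stimulation (6 Hz, 32 mA, 3 seconds) was applied to provoke forelimb myoclonus, Straub tail and immobility. Control mice received 0.5% tragacanth solution, 0.5% methylcellulose solution or olive oil.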
# [4] = tested on: Crl: CD (SD) male rats; experiment: Evaluation of antidepressant effect (forced swimming, duration of immobility); assay type: in vivo
# Description: (§1) Meanwhile, there are no reports about animal models which provide a good clinical prediction to evaluate the improving efficacy for bipolar disorder. However, bipolar disorder comprises “manic state” and “depressive state”, and some animals are reported to be useful as a model to evaluate the improvement of each pathological condition individually. In general, an index of manic state is excessive hyperactivity induced by administering methamphetamine and chlordiazepoxide in combination, and that of depressive state is immobility induced by forced swimming.
# Test 6: Evaluation of Antidepressant Effect
# Test 6 is a typical test to evaluate the antidepressant activity of medicaments (Porsolt et al., Nature, 266: 730-732, 1977, Porsolt et al., Eur. J. Pharmacol., 47: 379-391, 1978). Crl: CD (SD) male rats (12 rats in each group, body weight 200-250 g) were forced to swim for 15 minutes in a water pool with 200 mm diameter. In the pool, water was filled up to a depth of 205 mm from the bottom of the pool, and thus the rats could not touch the bottom of the pool with their hind limbs. Fifteen minutes after the completion of the forced swimming, test compounds were orally administered to the rats. On the next day, the test compounds were administered to the rats at the same dose as the previous day, and the rats were put in the pool for 5 minutes at the same clock time as the previous day. […] The antidepressant effect was evaluated by calculating how long the duration of immobility was shortened against the control. To the control, 0.5% methylcellulose solution was administered.
# [5] = tested on: Slc: C57BL/6J male mice; experiment: Evaluation of antimanic effect (methamphetamine and chlordiazepoxide induced hyperactivity, locomotor distance); assay type: in vivo; conditions: methamphetamine 4 mg/kg and chlordiazepoxide 10 mg/kg i.p.
# Description: as §1
# Test 7: Evaluation of Antimanic Effect
# Test 7 evaluates the antimanic effect of medicaments. The evaluation system is a test system whose utility has been already confirmed with a known antimanic agent which is clinically used as a mood-stabilizing drug, not as a drug for treating schizophrenia (Arban et al., Behay. Brain Res., 158:123-132, 2005, Foreman et al., Pharmacol. Biochem. Behay., 89: 523-534, 2008). Test compounds were orally administered to Slc: C57BL/6J male mice (8 mice in each group, body weight 20-26 g). After 30 minutes of administration, methamphetamine (4 mg/kg) and chlordiazepoxide (10 mg/kg) were administered intraperitoneally. Then, the mice were allowed to move freely in an acrylic cage (W 360 mm×D 230 mm×H 310 mm) for 90 minutes. The locomotor distances of the mice were measured with Ethovision software (Ver. 3.1). Among the 90 minutes, the result of the latter 60 minutes with the exception of the first 30 minute's result for adaptation to the new environment was used as data of the locomotor distance. The antimanic effect was evaluated by calculating how long locomotor distance was shortened against the control. To the control mice, 0.5% methylcellulose solution was administered.
smiles,measurement,setting,value
"NC(=O)Cc1ccccc1-c1ccccc1Cl [Example 16, 2-(2′-chlorobiphenyl-2-yl)acetamide]",responders at 50 mg/kg,"[1]; Mus musculus, po, 1 h, 50 mg/kg oral, Slc: ddY male mice, 3 per group, electrical stimulation 1 hour after administration, inhibition of hind limb extension, read-out: MES (positive number/tested number) (converted)",100%
same,responders at 100 mg/kg,"[1]; Mus musculus, po, 1 h, 100 mg/kg oral, Slc: ddY male mice, 3 per group, electrical stimulation 1 hour after administration, inhibition of hind limb extension, read-out: MES (positive number/tested number) (converted)",100%
same,anticonvulsant action in maximum electroshock seizure (MES) model test,"[1]; mice, oral 50 or 100 mg/kg, 1 hour after administration",anticonvulsant action was observed
same,responders at 50 mg/kg,"[2]; Mus musculus, po, 1 h, 50 mg/kg oral, Slc: ddY male mice, 3 per group, observed 30 minutes for clonic convulsion, read-out: scPTZ (positive number/tested number) (converted)",66.7%
same,responders at 100 mg/kg,"[2]; Mus musculus, po, 1 h, 100 mg/kg oral, Slc: ddY male mice, 3 per group, observed 30 minutes for clonic convulsion, read-out: scPTZ (positive number/tested number) (converted)",100%
same,anticonvulsant action in subcutaneously pentetrazol-injected model (scPTZ) test,"[2]; mice, oral 50 or 100 mg/kg",anticonvulsant action was observed
same,ED50,"[3]; Mus musculus, 6 Hz psychomotor seizure model, read-out: ED50",38.1 mg/kg
same,6 Hz (Positive number/tested number),"[3]; dose 50 mg, 30 minutes or 1 hour after administration",8/10/50
same,The rate of the shortened duration of immobility (% control),[4]; 10 mg/kg oral,19.9 % control
same,The rate of the shortened duration of immobility (% control),[4]; 30 mg/kg oral,21.9 % control
same,The rate of the shortened locomotor-distance (% control),[5]; 30 mg/kg oral,45.7 % control
same,The rate of the shortened locomotor-distance (% control),[5]; 60 mg/kg oral,69.1 % control
same,The rate of the shortened locomotor-distance (% control),[5]; 100 mg/kg oral,84.9 % control
